A melting point compilation (Tetko et al.; mined from patent text by program, amines drawn as free bases though some values may be those of a salt)

Row | SMILES | melting point
1 | CCCCCC(=O)OCn1cc(F)c(=O)[nH]c1=O | 95 to 96 °C
2 | Nc1c(O)cc(Cl)cc1C(=O)C(F)(F)F | 120 to 122 °C
3 | Nc1c(N=O)c(=O)n(CC2CCCC2)c(=O)n1CC1CCCC1 | 254 to 255 °C
4 | Oc1ccc2c(c1)C13CCCCC1(Cc1ccccc1)C(C2)N(CC1CC1)CC3 (configuration not stated) | > 280 °C
5 | O=c1sc2ccccc2n1Cc1nc2ccccc2n1-c1ccccc1 | 196 to 198 °C
6 | CC(=O)OCCn1c2ccccc2c2ccccc21 | 73 to 74.5 °C
7 | NC(=O)COC(=O)c1c(Cl)cccc1Cl | 114 to 116 °C
8 | CC1(C)SC(=O)NC1C(=O)NCCO[N+](=O)[O-] (configuration not stated) | 98 to 100 °C
9 | CC(=O)Cn1c(=O)n(C2CCN(CCCC(c3ccc(F)cc3)c3ccc(F)cc3)CC2)c2ccc(Cl)cc21 | 175 °C
10 | CC(=O)CS(=O)(=O)NC1(c2ccc(OCc3ccc4ccccc4n3)cc2)CCCCCC1 | 174 to 176 °C
11 | CS(=O)(=O)c1nc(O)nn1-c1ccccc1 | 173 to 175 °C
12 | O=C(CC12CC3CC(CC(C3)C1)C2)Nc1cc(O)ccc1Cl | 224 to 225 °C
13 | O=C(O)CC1(c2ccccc2)CCCCC1=O (configuration not stated) | 130 to 132 °C
14 | CCCCCCCCCCOc1ccc(C(=O)O)o1 | 124 to 126 °C
15 | CC(CCC(=O)O)C1CCC2C3CCC4CC(OC=O)CCC4(C)C3CC(OC=O)C12C (configuration not stated) | 123 to 125 °C
16 | C=C1CCC2C3CCc4cc(O)ccc4C3CCC12C (configuration not stated) | 134 to 136 °C
17 | CN1CCN(c2ccccc2-c2ccc(C#N)c(=O)[nH]2)CC1 | 202 to 203 °C
18 | CC(C)[C@H](NC(=O)OCc1ccccc1)C(=O)N(CC(=O)O)Cc1ccccc1 | 41 to 45 °C

Row | SMILES | melting point
19 | CC(=O)N1CCS(=O)c2cccc(Cl)c2C1 (configuration not stated) | 119 to 121 °C
20 | C=CCOCC(CC)(COCC=C)C(NC(=O)c1ccc(Cl)cc1)NC(=N[N+](=O)[O-])Nc1cccnc1 (configuration not stated) | 175 to 180 °C
21 | Nc1nc(=O)n(CCCN2CCN(C(c3ccccc3)c3ccccc3)CC2)c2ccccc12 | 190 to 196 °C
22 | C#CCCCNC(=O)C(c1ccccc1)c1ccccc1 | 90 °C
23 | CC1(C)CS(=O)(=O)CC(C)(C)[NH+]1[O-] | 163 °C
24 | ClCCCCOc1ccc(OCCCCCl)cc1 | 158 to 159 °C
25 | CCCCCCCCNC(=O)/C=C\SC(=O)c1ccc(F)cc1 | 87 to 91 °C
26 | CCn1c(=O)n(CCCCC(C)=O)c(=O)c2c1ncn2Cc1ccccc1 | 123 to 125 °C
27 | Cc1ccc(S(=O)(=O)N2Cc3cscc3C2)cc1 | 125 to 127 °C
28 | N#CC(=O)c1ccccc1Cl | 33 °C
29 | CCOC(=O)NS(=O)(=O)c1c(Cl)c(C)nn1C | 106 to 109 °C
30 | CCC(C(=O)c1ccc(OCc2ccccc2)cc1)c1ccc(OCc2ccccc2)cc1 (configuration not stated) | 84 °C
31 | OC(CCSC(=S)Nc1ccc(Cl)cn1)c1ccc(F)cc1 (configuration not stated) | 86 °C
32 | O=[N+]([O-])C(Sc1ccc(Cl)cc1)=C1NCCN1Cc1ccc(Cl)nc1 | 159 to 161 °C
33 | O=C(NC(Cc1ccccc1)C(=O)C(F)(F)F)c1ccccc1 (racemic) | 148 to 157 °C
34 | CCOC(=O)OCC1(C)COC(=O)OC1 | 68 to 69 °C
35 | CCCC[C@H](NC(=O)[C@H](CC(C)C)NC(=O)c1c(F)ccc(F)c1F)C(=O)CSCc1ccco1 | 116 to 117 °C
36 | CCOP(=O)(OCC)C(C)(C)CC1(C)NC(=O)NC1=O (configuration not stated) | 142 to 146 °C

Continued, values first:

Row | melting point | SMILES
37 | 137 to 142 °C | O=C1c2cc([N+](=O)[O-])ccc2CC2CCCCN12 (configuration not stated)
38 | 116 to 117 °C | CCC1(CCCCN2CCN(c3cccc(Cl)c3)CC2)C(=O)Nc2cc(F)ccc21 (configuration not stated)
39 | 175 to 178 °C | COC(=O)C=Cc1cccc2c3c(n(C)c12)CCN(Cc1nc[nH]c1C)C3=O
40 | 207 to 210 °C | COC(=O)c1cc(C(=O)NNC(=O)c2ccco2)c2cc(Cc3ccc(F)cc3)cnc2c1O
41 | 144 to 146 °C | CNc1cc(NC)cc(C(=O)CS(C)(=O)=O)c1
42 | 128 °C | O=C(c1ccc(F)cc1F)N1CCc2cc(S(=O)(=O)N3CC(c4ccccc4)NC3=O)ccc21 (configuration not stated)
43 | 136 to 138 °C | CCC(SN(C(=O)NC(=O)c1c(F)cccc1F)c1ccc(Oc2ccc(C(F)(F)F)cc2Cl)cc1F)C(=O)NC (configuration not stated)
44 | 105 °C | COCCOc1ccc2c(c1)n(C1CCCCC1)c(=O)n2S(=O)(=O)c1ccc(C(=O)O)cc1OC
45 | 62 to 65 °C | CCOC(=O)COC(=O)c1cc(-n2nc3ccc(Cl)cn3c2=O)c(F)cc1Cl
46 | 44 to 46 °C | CCOC(=O)c1ccc(SC)cn1
47 | 215 to 217 °C | Cc1nn(-c2cc3[nH]c(=O)ccc3cc2F)c(=O)n1C(F)F
48 | 119 to 120 °C | COc1cc(C(=O)N2CCN(C(=O)OC(C)(C)C)C(CO)C2)cc(OC)c1OC (configuration not stated)
49 | 110 to 120 °C | CC1=CC(=O)N(c2cc(-n3c(=O)n(C)c(=O)n(CC(=O)OC(C)C)c3=O)c(Cl)cc2F)C1=O
50 | 237 to 239 °C | CC(C)C(C(=O)O)N(C)S(=O)(=O)c1ccc(-c2ccc(NC(=O)c3cc4ccccc4o3)cc2)cc1 (configuration not stated)
51 | 128 to 130 °C | COc1ccc(-c2ccc(Br)cc2N)cc1
52 | 246 to 247 °C | CC(C)n1c(=O)c(=O)[nH]c2cccnc21
53 | 121 to 140 °C | CC1CON2C(=O)c3cc(Cl)ccc3OC2C1 (configuration not stated)
54 | 147 to 149 °C | O=c1[nH]nc2c3c(cccc13)N=C(CN1CCCNCC1)N2

Row | melting point | SMILES
55 | > 225 °C | O=C1N(Cc2ccccn2)c2cccc(Br)c2C1(O)c1cc2c(cc1O)OCC2 (configuration not stated)
56 | 71 to 73 °C | CCc1cc([N+](=O)[O-])c(N)c([N+](=O)[O-])c1COC
57 | 231 to 233 °C | O=COCC#Cc1cc(F)c2ncc(C(=O)NCc3ccc(Cl)cc3)c(O)c2c1
58 | 94 to 95 °C | Cn1nnnc1SCCCCSC1=Nc2ccccc2C(=O)NN1
59 | 225 °C | COc1cc2c(cc1OC)C1=NCC(CBr)N1C(SC)=N2 (configuration not stated)
60 | 125 to 127 °C | CC(C)Oc1ccc(CCCOc2cc(CCC(=O)O)n(C)n2)c(OCc2ccc(Cl)cc2Cl)c1
61 | 120 to 121 °C | COCCN1C(C)=C(C(=O)OC)C(CCOC)(c2ccccc2Cl)C(C(=O)OC)=C1C
62 | 102 °C | Cc1ccc(C2=NC(C)(C)C(c3ccncc3)C2)cc1 (configuration not stated)
63 | 172 to 173 °C | CC(C)Cn1c(=O)n(C)c(=O)c2c(SCCCC(=O)O)c(Cc3cccc4ccccc34)sc21
64 | 125 to 136 °C | Cc1c(C)c2c(c(C)c1N)C(c1ccc(C3OCCO3)cc1)CO2 (configuration not stated)
65 | 161 to 162 °C | CC(=O)NCc1ccc2c(c1)N(C1CCN(CCc3cccc(F)c3)CC1)CC2
66 | 72 to 74 °C | CC(O)(CCBr)c1ccc(-c2ccc(F)cc2)cc1 (configuration not stated)
67 | 256 to 258 °C | CNC(=O)c1ccccc1Nc1nc(Nc2cc3c(cc2OC)CCOC(=O)N3C)ncc1Cl
68 | 100 °C | CCOC(=O)C1=C(COCC#CC(=O)O)NC(C)=C(C(=O)OC)C1c1cccc(Cl)c1Cl (configuration not stated)
69 | 206 to 207 °C | CCn1ncc2c1ncc1c(=O)n(C)c3cc(C)nn3c12
70 | 186 to 191 °C | O=c1[nH]c2ccc(C3=NOC(CN4CCC(C(O)c5ccc(F)cc5)CC4)C3)cc2o1 (configuration not stated)
71 | 168 to 175 °C | Cc1cc(C(=O)CCc2cc(-c3ccc(C(F)(F)F)cc3)nn2CC2CC2)ccc1OCC(=O)O
72 | 177 to 178 °C | CCCc1c2nc(C(=O)OC)cc(Br)c2cc2c(=O)cc(C(=O)OCC)oc12
